Data: article PMC9029089, “1,5-Disubstituted Acylated 2-Amino-4,5-dihydroimidazoles as a New Class of Retinoic Acid Receptor–Related Orphan Receptor (ROR) Inhibitors” (International Journal of Molecular Sciences, 2022)

These molecules were tested against T1, RORγ (Mus musculus, UniProt P51450) (assay: Gal4-RORγ-LBD UAS-luciferase reporter assay in TRex-CHO-K1 cells (doxycycline-stimulated)). Settings: T-REx-CHO-K1; individual controls 1295.201-307, 5 μg/ml, triplicate; read-out: % Inhibition RORγ 5 μg/ml.
T1 construct: mRORγ (Pro-261-end); expressed in transfected cells
T1 sequence (P51450 261-516 limits assumed): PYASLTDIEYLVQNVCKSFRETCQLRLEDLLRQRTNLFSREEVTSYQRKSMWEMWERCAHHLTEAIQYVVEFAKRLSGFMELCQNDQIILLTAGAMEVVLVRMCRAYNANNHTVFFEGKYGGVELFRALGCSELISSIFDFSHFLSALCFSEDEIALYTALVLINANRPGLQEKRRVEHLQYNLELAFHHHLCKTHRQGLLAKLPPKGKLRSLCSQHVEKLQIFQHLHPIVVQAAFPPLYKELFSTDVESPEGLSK
Format: cell-based
From the text: (§1) The Gal4-DBD-ROR-LBD fusion proteins were subcloned in the pcDNA4/TO expression vector (Thermo Scientific) and transfected into TRex-CHO-K1 cells (Thermo Scientific) for tetracycline-controlled expression of the corresponding ROR proteins. Transfected cells were selected with hygromycin and Zeocin and individual clones for each of the Gal4-RORγ, Gal4-RORα, and Gal4-RORβ cell lines were isolated using a standard serial dilution protocol. Clones with the highest doxycycline-dependent stimulation of luciferase activity were selected for all functional experiments.
(§2) For screening FIU libraries, cells were resuspended in Ham’s F-12 assay medium containing 2% charcoal-treated FBS and no selection drugs. […] Cells were allowed to attach for 2 h, followed by compound treatment and stimulation with 20 ng/mL doxycycline for an additional 16–20 h. Appropriate solvent controls, negative controls with no doxycycline, and blanks with no cells were included in every plate. Prior to measuring luciferase activity, 6 µL of 0.15 mg/mL resazurin (Cayman Chemical) in PBS were added and cells were incubated for 1 h at 37 °C. Fluorescence intensity was detected at 545 nm excitation/590 nm emission using a CLARIOstar reader (BMGLabtech) as a measure of cell viability, to identify any potential cytotoxic effect of test compounds and mixtures.
(§3) Luminescence was normalized by the fluorescence intensity and the percentage of inhibition was calculated with respect to control cells stimulated with doxycycline in the presence of solvent control (0.1% DMF). All primary screens with individual compounds were performed in triplicate with a final concentration of 5 µg/mL. […] IC50 values were calculated using GraphPrism (GraphPad software).

inhibition at 5 µg/mL [%] | Structure (SMILES)
82.8 | O=C(CCC1CCCCC1)NC1=NC[C@H](Cc2ccccc2)N1CCc1ccccc1 [1295.305]

Same assay, conditions: individual controls 1295.201-307, 5 μg/ml, triplicate

Structure (SMILES) | % Inhibition RORγ 5 μg/ml [%]
C[C@H]1CN=C(NC(=O)Cc2ccccc2)N1CCc1ccccc1 [1295.201] | -40.7
O=C(Cc1ccccc1)NC1=NC[C@H](Cc2ccccc2)N1CC1CCC1 [1295.265] | 53.1
CC(C)(C)[C@H]1CN=C(NC(=O)Cc2ccccc2)N1CCc1ccccc1 [1295.231] | -31.5
CCCC(=O)NC1=NC[C@H](Cc2ccccc2)N1CCc1ccccc1 [1295.293] | 37.4
CC(C)C(=O)NC1=NC[C@H](Cc2ccccc2)N1CCc1ccccc1 [1295.295] | 31.3
O=C(Cc1ccccc1)NC1=NC[C@@H](c2ccccc2)N1CCc1ccccc1 [1295.220] | -5.2
O=C(NC1=NC[C@H](Cc2ccccc2)N1CCc1ccccc1)C1CCCC1 [1295.303] | 3.3
Cc1cccc(CC(=O)NC2=NC[C@H](Cc3ccccc3)N2CCc2ccccc2)c1 [1295.275] | 60.7
O=C(Cc1ccccc1)NC1=NC[C@H](Cc2ccccc2)N1CCc1ccccc1 [1295.250] | 9.9
COc1ccc(CCC(=O)NC2=NC[C@H](Cc3ccccc3)N2CCc2ccccc2)cc1OC [1295.284] | 34.0
CCCCCCCN1C(NC(=O)Cc2ccccc2)=NC[C@@H]1Cc1ccccc1 [1295.254] | 48.4
O=C(Cc1ccccc1)NC1=NC[C@H](Cc2ccc(F)cc2)N1CCc1ccccc1 [1295.227] | -8.2
Cc1cccc(C(=O)NC2=NC[C@H](Cc3ccccc3)N2CCc2ccccc2)c1 [1295.288] | 59.9
CCC[C@@H]1CN=C(NC(=O)Cc2ccccc2)N1CCc1ccccc1 [1295.216] | 24.5
O=C(Cc1ccccc1)NC1=NC[C@H](Cc2ccccc2)N1CCc1ccc(F)cc1 [1295.240] | 52.2
O=C(Cc1ccccc1)NC1=NC[C@H](Cc2ccccc2)N1CCc1cccc(Br)c1 [1295.239] | 47.8
CC(C)[C@H]1CN=C(NC(=O)Cc2ccccc2)N1CCc1ccccc1 [1295.206] | 32.7
CC(C)CCN1C(NC(=O)Cc2ccccc2)=NC[C@@H]1Cc1ccccc1 [1295.257] | -28.5

Same assay, conditions: individual controls of library 1295, second confirmatory dose response, Figure 2

IC50 [µM] | Structure (SMILES)
6.6 ± 1.4 | O=C(CCC1CCCCC1)NC1=NC[C@H](Cc2ccccc2)N1CCc1ccccc1 [1295.305]

Each molecule was assayed against T2, RORα (Homo sapiens, UniProt P35398) (assay: Gal4-RORα-LBD UAS-luciferase reporter assay in TRex-CHO-K1 cells (doxycycline-stimulated)). Settings: IC50 (μM) (N=4) RORα, individual controls of library 1295, second confirmatory dose response, Figure 2.
T2 construct: hRORα (Pro-211-end); expressed in transfected cells
T2 sequence (P35398 266-523): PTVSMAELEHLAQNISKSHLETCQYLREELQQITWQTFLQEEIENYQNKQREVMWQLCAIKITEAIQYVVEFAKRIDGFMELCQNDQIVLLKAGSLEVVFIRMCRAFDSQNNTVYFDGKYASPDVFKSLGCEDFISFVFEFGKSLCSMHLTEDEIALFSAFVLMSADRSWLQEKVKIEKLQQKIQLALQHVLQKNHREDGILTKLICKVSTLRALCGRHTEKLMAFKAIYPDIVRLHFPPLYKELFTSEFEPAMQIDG
Format: cell-based
From the text: as §1, §2, §3

IC50 [µM] | Structure (SMILES)
10.3 ± 3.7 | O=C(CCC1CCCCC1)NC1=NC[C@H](Cc2ccccc2)N1CCc1ccccc1 [1295.305]

What follows are molecules tested against T3, RORβ (Rattus norvegicus, UniProt P45446) (assay: Gal4-RORβ-LBD UAS-luciferase reporter assay in TRex-CHO-K1 cells (doxycycline-stimulated)). Settings: IC50 (μM) (N=4) RORβ, individual controls of library 1295, second confirmatory dose response, Figure 2.
T3 construct: rRORβ (Pro 205-end); expressed in transfected cells
T3 sequence (P45446 205-459 isoform P45446-1): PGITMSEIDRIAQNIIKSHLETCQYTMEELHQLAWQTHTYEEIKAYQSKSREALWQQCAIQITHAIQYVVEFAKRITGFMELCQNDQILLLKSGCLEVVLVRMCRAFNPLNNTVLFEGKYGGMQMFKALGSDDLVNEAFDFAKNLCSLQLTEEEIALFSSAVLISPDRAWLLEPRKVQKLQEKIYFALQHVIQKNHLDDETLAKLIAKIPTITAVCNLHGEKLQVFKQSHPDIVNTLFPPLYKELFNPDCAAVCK
Format: cell-based
From the text: To investigate the transcriptional activity of all three RORs, we generated stable cell lines expressing an UAS-driven luciferase reporter together with the corresponding Gal4-DNA binding domain fused to the ligand binding domains (LBDs) of mRORγ (Pro-261-end), hRORα (Pro-211-end), or rRORβ (Pro 205-end). The Gal4-DBD-ROR-LBD fusion proteins were subcloned in the pcDNA4/TO expression vector (Thermo Scientific) and transfected into TRex-CHO-K1 cells (Thermo Scientific) for tetracycline-controlled expression of the corresponding ROR proteins. Transfected cells were selected with hygromycin and Zeocin and individual clones for each of the Gal4-RORγ, Gal4-RORα, and Gal4-RORβ cell lines were isolated using a standard serial dilution protocol. Clones with the highest doxycycline-dependent stimulation of luciferase activity were selected for all functional experiments. All cell lines were maintained in complete Ham’s F12 medium containing 10% fetal bovine serum (FBS), 10 µg/mL blasticidine, 100 µg/mL hygromycin, and 100 µg/mL Zeocin and were used within 2 months of culture without any loss of doxycycline-dependent stimulation of luciferase activity.
For screening FIU libraries, cells were resuspended in Ham’s F-12 assay medium containing 2% charcoal-treated FBS and no selection drugs. Ten thousand cells per well were seeded in 30 µL of assay medium in 384 white plates with clear bottom (Greiner). Cells were allowed to attach for 2 h, followed by compound treatment and stimulation with 20 ng/mL doxycycline for an additional 16–20 h. Appropriate solvent controls, negative controls with no doxycycline, and blanks with no cells were included in every plate. Prior to measuring luciferase activity, 6 µL of 0.15 mg/mL resazurin (Cayman Chemical) in PBS were added and cells were incubated for 1 h at 37 °C. Fluorescence intensity was detected at 545 nm excitation/590 nm emission using a CLARIOstar reader (BMGLabtech) as a measure of cell viability, to identify any potential cytotoxic effect of test compounds and mixtures. Following the resazurin assay, the medium was removed and 20 µL of BriteLite-Plus luciferase reagent (Perking Elmer) were added; luminescence was measured in a CLARIOstar reader using a 384 aperture spoon and a 0.1 sec measuring time interval.
as §3

IC50 [µM] | Structure (SMILES)
10.4 ± 0.7 | O=C(CCC1CCCCC1)NC1=NC[C@H](Cc2ccccc2)N1CCc1ccccc1 [1295.305]

What follows are molecules tested against T1, RORγ (assay: Gal4-RORγ-LBD UAS-luciferase reporter assay in TRex-CHO-K1 cells (doxycycline-stimulated)). Settings: library 2520, RORγ cells.
Format: cell-based

% Inhibition at 4 μM (N=3) [%] | Structure (SMILES)
43.0 | CCC(C)C1CN=C(NC(=O)Cc2ccc(OC)cc2)N1CCC1CC2CCC1C2 (mixture of isomers) [2520.14]
-40.8 | CC(C)C(=O)NC1=NCC(Cc2ccc3ccccc3c2)N1CCC(C)c1ccccc1 (mixture of isomers) [2520.04]
-32.2 | CCC(C(=O)NC1=NCC(Cc2ccc3ccccc3c2)N1CCC(C)c1ccccc1)c1ccccc1 (mixture of isomers) [2520.07]
-21.7 | CCC(C(=O)NC1=NCC(Cc2ccccc2)N1CCC1CC2CCC1C2)c1ccccc1 (mixture of isomers) [2520.35]
-31.8 | CCC(C(=O)NC1=NCC(Cc2ccc3ccccc3c2)N1CC1CCCCC1)c1ccccc1 (mixture of isomers) [2520.03]
-5.4 | CCOc1ccc(CC2CN=C(NC(=O)C(CC)c3ccccc3)N2CCC(C)c2ccccc2)cc1 (mixture of isomers) [2520.43]
-33.8 | COc1ccc(CC(=O)NC2=NCC(Cc3ccc4ccccc4c3)N2CCC2CC3CCC2C3)cc1 (mixture of isomers) [2520.02]
-7.3 | COc1ccc(CC(=O)NC2=NCC(Cc3ccc4ccccc4c3)N2CCC(C)c2ccccc2)cc1 (mixture of isomers) [2520.10]
30.4 | CC(C)C(=O)NC1=NC[C@H](Cc2ccc3ccccc3c2)N1CC1CCCCC1 [2520.12]
40.8 | COc1ccc(CC(=O)NC2=NCC(Cc3ccccc3)N2CCC2CC3CCC2C3)cc1 (mixture of isomers) [2520.26]
-56.4 | COc1ccc(CC(=O)NC2=NC[C@H](Cc3ccc4ccccc4c3)N2CC2CCCCC2)cc1 [2520.06]
-5.4 | CC(C)C(=O)NC1=NC[C@H](Cc2ccccc2)N1CC1CCCCC1 [2520.36]
-20.0 | CCOc1ccc(CC2CN=C(NC(=O)C(C)C)N2CCC2CC3CCC2C3)cc1 (mixture of isomers) [2520.44]
13.3 | CCC(C)C1CN=C(NC(=O)C(C)C)N1CCC1CC2CCC1C2 (mixture of isomers) [2520.20]
35.9 | CCC(C(=O)NC1=NCC(C(C)CC)N1CCC1CC2CCC1C2)c1ccccc1 (mixture of isomers) [2520.23]
26.2 | CC[C@H](C)[C@H]1CN=C(NC(=O)Cc2ccc(OC)cc2)N1CC1CCCCC1 [2520.18]
-4.8 | COc1ccc(CC(=O)NC2=NC[C@H](Cc3ccccc3)N2CC2CCCCC2)cc1 [2520.30]
34.4 | COc1ccc(CC(=O)NC2=NCC(Cc3ccccc3)N2CCC(C)c2ccccc2)cc1 (mixture of isomers) [2520.34]
-22.6 | CCOc1ccc(CC2CN=C(NC(=O)Cc3ccc(OC)cc3)N2CCC2CC3CCC2C3)cc1 (mixture of isomers) [2520.38]
36.0 | CC(C)C(=O)NC1=NCC(Cc2ccccc2)N1CCC1CC2CCC1C2 (mixture of isomers) [2520.32]
-8.1 | CCOc1ccc(CC2CN=C(NC(=O)C(C)C)N2CCC(C)c2ccccc2)cc1 (mixture of isomers) [2520.40]
